The source of these data is ChEMBL document CHEMBL1131820, “Synthesis of pyrazolidinone antibacterial agents” (1999).

For assay [1], the system named is Escherichia coli. Kind of assay: Compound was tested by in vitro qualitative microbiological testings with cephalothin against Escherichia coli; positive synergy test. The class given is functional, organism-based.
The subject of assay [2] is Staphylococcus aureus. Kind of assay: Compound was tested by in vitro qualitative microbiological testings with cephalothin against Staphylococcus aureus; positive synergy test. The format is functional, organism-based.
For assay [3], the system named is Escherichia coli. The assay is described as follows: In vitro antibacterial activity against Escherichia coli; Active. The format is functional, organism-based.
Assay [4] concerns Micrococcus luteus. Kind of assay: microbe, parasite or virus in culture. The class given is functional.
Description: Antibacterial activity against Micrococcus luteus; 128 to 512 ug/mL
Assay [5] deals with Staphylococcus aureus. The assay is described as follows: microbe, parasite or virus in culture. The format is functional.
The test system of assay [6] is Escherichia coli. Kind of assay: Compound was tested by in vitro qualitative microbiological testings with cephalothin against Escherichia coli; No anti bacterial activity. The format is functional, organism-based.
Assay [7] has as its system Staphylococcus aureus. The assay is described as follows: Compound was tested by in vitro qualitative microbiological testings with cephalothin against Staphylococcus aureus; No anti bacterial activity. The class given is functional, organism-based.

Converted amounts (≈) assume the structure as drawn. The source made the active and inactive calls. The calls are words filed in the database; no cut-off is given here.

Consider `CC(=O)N1C(=O)C(NC(=O)Cc2ccccc2)CN1C` (centres undefined), for which the Activity result in assay [1] and in assay [2] was “positive synergy test” throughout.

Regarding `CN1CC(NC(=O)Cc2ccccc2)C(=O)N1C(=O)c1ccccc1` (centres undefined), in assay [3], the result was Active. For the same molecule, the MIC in assay [4] and in assay [5] was 128 µg/mL (≈ 379 µM) in each case. Further, in assay [2], the Activity result is “positive synergy test”.

Consider `CN1CC(NC(=O)Cc2ccccc2)C(=O)N1C(=O)c1cccc(O)c1` (centres undefined), for which the MIC in assay [4] and in assay [5] was 128 µg/mL (≈ 362 µM) each time.

Take `CN1CC(NC(=O)Cc2ccccc2)C(=O)N1` (centres undefined): the outcome in assay [6] and in assay [7] was inactive.

On to `CN1CC(NC(=O)Cc2ccccc2)C(=O)N1C(=O)Cc1ccccc1` (centres undefined), for which the result in assay [3] was Active. Besides, the MIC in assay [4] and in assay [5] was 128 µg/mL (≈ 364 µM) throughout. In addition, the Activity result in assay [2] is “positive synergy test”.
